According to publication PMC8649774, “A New Class of Cell Wall-Recycling L,D-Carboxypeptidase Determines β-Lactam Susceptibility and Morphogenesis in Acinetobacter baumannii” (mBio, 2021):

Target: T1, ElsL (ElsLHis) (Acinetobacter baumannii, UniProt A0ABX6CN83)
T1 construct: gene FQU82_03167; leaderless cytoplasmic YkuD-domain protein, C-terminal 6xHis (pET28b), expressed in E. coli BL21(DE3), Ni-NTA purified with TCEP
Assay: UPLC-MS of reaction products
Type: biochemical
Conditions: 100 mM Tris-HCl, 37 °C, 2 h, 10 ng enzyme; M4 purified from Caulobacter crescentus sacculi

CC(=O)N[C@H]1[C@H](O[C@H]2[C@H](O[C@H](C)C(=O)N[C@@H](C)C(=O)N[C@H](CCC(=O)N[C@@H](CCC[C@@H](N)C(=O)O)C(=O)N[C@H](C)C(=O)O)C(=O)O)[C@@H](NC(C)=O)C(O)O[C@@H]2CO)O[C@H](CO)[C@@H](O)[C@@H]1O (stereo partly shown) [M4, murotetrapeptide]
UPLC-MS of reaction products: ElsL completely cleaved the M4 substrate to the disaccharide tripeptide (M3)
